Measured values: patent publication EP4692114A1, “CALCITONIN ANALOGUE, AND DERIVATIVE THEREOF AND USE THEREOF” (Hangzhou Sciwind Biosciences Co., Ltd., priority 2023, dated 2024)
*1 amine or outer side, *2 acyl side, *3 side chain or, on linkers, in order; H or OH if unused. Where a SMILES comes first, the peptide text is derived from it. The star is where a group is joined. C20 diacid = O=C(O)CCCCCCCCCCCCCCCCCCC(=O)*; C18 diacid = O=C(O)CCCCCCCCCCCCCCCCC(=O)*; γGlu = O=C(O)[C@H](CCC(=O)[*:2])N[*:1]; βAsp = O=C(O)[C@H](CC(=O)[*:2])N[*:1]

Legend:
human amylin receptors = target: T1, human amylin receptors (Homo sapiens, UniProt O60896+P30988); assay: Luciferase assay of amylin (amylin receptor/CRE-luc cell line); type: cell-based; details: stably transfected amylin receptor/CRE-luc CHO cells (CHO-K1/Gal5/AMY3), 24 hours incubation, luciferase readout;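 further: agonist potency from luminescence of cAMP response element-driven luciferase, EC50 derived from a standard curve of signal versus compound concentration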
T1 sequence (P30988 25-474): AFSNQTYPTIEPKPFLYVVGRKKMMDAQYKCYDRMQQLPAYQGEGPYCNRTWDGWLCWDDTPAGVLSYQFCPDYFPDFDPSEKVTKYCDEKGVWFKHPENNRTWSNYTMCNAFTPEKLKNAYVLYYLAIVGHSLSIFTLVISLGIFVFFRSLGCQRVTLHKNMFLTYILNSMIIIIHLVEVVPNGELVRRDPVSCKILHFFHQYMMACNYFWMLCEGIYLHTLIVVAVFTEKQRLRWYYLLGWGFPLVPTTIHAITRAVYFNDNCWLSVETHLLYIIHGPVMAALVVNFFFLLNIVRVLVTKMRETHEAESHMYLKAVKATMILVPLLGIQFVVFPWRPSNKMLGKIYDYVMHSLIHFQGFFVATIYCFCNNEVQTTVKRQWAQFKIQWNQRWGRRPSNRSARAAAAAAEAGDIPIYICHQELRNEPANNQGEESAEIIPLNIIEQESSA
T1 sequence (O60896 24-148 partner): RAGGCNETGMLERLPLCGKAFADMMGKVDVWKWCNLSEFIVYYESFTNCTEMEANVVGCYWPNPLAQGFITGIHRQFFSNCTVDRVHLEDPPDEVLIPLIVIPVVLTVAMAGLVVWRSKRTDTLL
From the text: The objective of this assay is to test the activity or potency of calcitonin analogues or derivatives on human amylin receptors in vitro using a luciferase assay.
Using the standard protocol, CHO-K1/Gal5/AMY3 cells (purchased from GenScript, with the calcitonin receptor and the receptor activity modifying peptide (RAMP) constructed already) were transfected with a plasmid containing a luciferase expression cassette driven by multiple copies of cAMP response elements (CREs). The cells were cultured in an F12 medium containing 200 ug/mL Zeocin, 2 ug/mL puromycin, 100 ug/mL hygromycin, and 400 ug/mL G418 to afford a stably transfected amylin receptor/CRE-luc cell line.
To each well of a white 96-well plate was added 50 µL of the tested sample solution at a respective concentration.
The stably transfected amylin receptor/CRE-luc CHO cells were resuspended in the growth medium at a certain density, and 50 µL of the cell suspension was added at a density of about 20000 cells per well to the white 96-well plate containing the tested sample solution. After incubation of 24 hours at 37°C and 5% CO2, 100 µL of a Luciferase substrate was added to each well, incubated for 3 minutes, and finally was tested for luminescence on SpectraMax L (Molecular Devices) with the software SoftMax Pro 7.0.3 GxP. A standard curve was plotted using the fluorescent intensities for calculation of EC50.

[1] = Heat accelerated stability assay under a neutral condition; type: physicochemical; details: pH about 7.4, 40°C; for Changes in characteristics or properties, 0d / Changes in characteristics or properties, 7d: 1 mg/mL, phosphate; for Concentration change (7d-0d)/%: Day 7 vs Day 0, reversed phase chromatography; for Purity Change% (7d-0d) / Purity Change% (26d-0d): purity from reversed phase chromatography-214 nm; for Purity Change% (7d-0d): Day 7 vs Day 0; for Purity Change% (26d-0d): Day 26 vs Day 0
Outline: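 Peptide (1 mg/mL) with sodium dihydrogen phosphate (1.42 mg/mL) in water, pH ~7.4, was sterile-filtered and stored at 40 °C, sampled on days 7 and 26. After centrifugation, concentration and purity (target/total peak area) were measured by reversed-phase HPLC at 214 and 280 nm, water/0.05% TFA to acetonitrile gradient, 25 °C column.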

SMILES	EC50 (human amylin receptors) [nM]	Changes in characteristics or properties, 0d [1]	Changes in characteristics or properties, 7d [1]	Concentration change (7d-0d)/% [1]	Purity Change% (7d-0d) [1]	Purity Change% (26d-0d) [1] [%]
CC(C)C[C@H](NC(=O)[C@H](CCCNC(=N)N)NC(=O)CNC(=O)[C@H](CC(C)C)NC(=O)[C@@H](NC(=O)[C@H](C)NC(=O)[C@@H](NC(=O)[C@H](CO)NC(=O)[C@H](CC(C)C)NC(=O)[C@H](CCC(N)=O)NC(=O)[C@H](CO)NC(=O)[C@H](C)NC(=O)CC[C@H](NC(=O)CCCCCCCCCCCCCCCCC(=O)O)C(=O)O)[C@@H](C)O)C(C)C)C(=O)N[C@@H](CO)C(=O)N[C@@H](CC(=O)O)C(=O)N[C@@H](CCC(=O)O)C(=O)N[C@@H](CC(C)C)C(=O)N[C@@H](Cc1c[nH]cn1)C(=O)N[C@@H](CCCNC(=N)N)C(=O)N[C@@H](CC(C)C)C(=O)N[C@@H](CCC(N)=O)C(=O)N[C@@H](CC(=O)O)C(=O)N[C@@H](Cc1ccc(O)cc1)C(=O)N1CCC[C@H]1C(=O)N[C@@H](CCCNC(=N)N)C(=O)N[C@H](C(=O)N[C@@H](CC(=O)O)C(=O)N[C@H](C(=O)NCC(=O)N[C@@H](CO)C(=O)NCC(=O)N[C@@H](CO)C(=O)N1CCC[C@H]1C(N)=O)C(C)C)[C@@H](C)O [M39] ({C18 diacid-γGlu}-ASQLSTAVLGRLSDELHRLQDYPRTDVGSGSP-NH2)	0.016	Clear	Clear	No change (a decrease of less than 1% from the initial value to the detected content is denoted as "no change")	No change (a decrease of less than 1% from the initial value to the detected content is denoted as "no change")	-3.3
CC(C)C[C@H](NC(=O)[C@H](CCCNC(=N)N)NC(=O)CNC(=O)[C@H](CC(C)C)NC(=O)[C@@H](NC(=O)[C@H](C)NC(=O)[C@@H](NC(=O)[C@H](CO)NC(=O)[C@H](CC(C)C)NC(=O)[C@H](CCC(N)=O)NC(=O)[C@H](CO)NC(=O)[C@H](C)NC(=O)C[C@H](NC(=O)CCCCCCCCCCCCCCCCCCC(=O)O)C(=O)O)[C@@H](C)O)C(C)C)C(=O)N[C@@H](CO)C(=O)N[C@@H](CC(=O)O)C(=O)N[C@@H](CCC(=O)O)C(=O)N[C@@H](CC(C)C)C(=O)N[C@@H](Cc1c[nH]cn1)C(=O)N[C@@H](CCCNC(=N)N)C(=O)N[C@@H](CC(C)C)C(=O)N[C@@H](CCC(N)=O)C(=O)N[C@@H](CC(=O)O)C(=O)N[C@@H](Cc1ccc(O)cc1)C(=O)N1CCC[C@H]1C(=O)N[C@@H](CCCNC(=N)N)C(=O)N[C@H](C(=O)N[C@@H](CC(=O)O)C(=O)N[C@H](C(=O)NCC(=O)N[C@@H](CO)C(=O)NCC(=O)N[C@@H](CO)C(=O)N1CCC[C@H]1C(N)=O)C(C)C)[C@@H](C)O [M43] ({C20 diacid-βAsp}-ASQLSTAVLGRLSDELHRLQDYPRTDVGSGSP-NH2)	0.017	Clear	Clear	No change (a decrease of less than 1% from the initial value to the detected content is denoted as "no change")	No change (a decrease of less than 1% from the initial value to the detected content is denoted as "no change")	-1.96
